Assay results published in patent US9976149B2, “Modified listeria bacteria and uses thereof” (priority 2014, dated 2018).
≈ marks a conversion by molar mass, not a printed value.

What was measured:
WT L. monocytogenes = experiment: Growth curves in BHI with added cyclic dinucleotide, WT bacteria; assay type: cell-based, Listeria monocytogenes; conditions: for effect on growth in the absence of vancomycin stress: BHI, dinucleotide 3 μg ml^−1; for effect on growth in the presence of vancomycin: vancomycin 1 μg ml^−1, dinucleotide 3 μg ml^−1
Procedure: (§1) Overnight cultures were adjusted to 0.03 O.D.600 in 20 ml fresh BHI broth, supplemented when indicated with 0.25 mM IPTG, 0.08 μg ml^−1 penicillin G, 1 μg ml^−1 vancomycin or 3 μg ml^−1 c-di-AMP. For bacterial RNA extraction, bacteria were grown at 37° C. to O.D.600 0.4, then supplemented with 3 μg ml^−1 lincomycin, 50 μM rhodamine 6 G (R6G), 1 μg ml^−1 vancomycin, 0.08 μg ml^−1 penicillin G for 2 h; or centrifuged and resuspended in minimal media pH 5 (lactic acid), minimal media with 10 mM H2O2, or defined minimal media pH 5 with 10 mM H2O2 for 30 mM For microscopy bacteria were grown similarly and supplemented with 1 μg ml^−1 vancomycin for 2 h. Growth curves in the presence of drugs were performed in a Synergy HT BIOTEK® plate reader at 37° C. with continuous shaking following O.D.600 every 15 min for 24 h. Of note, bacterial growth in the plate reader is different than in flasks in respect to the O.D. levels that are measured. In each experiment, growth conditions are indicated.

ΔmdrMTAC mutant = experiment: Growth curves in BHI with added cyclic dinucleotide, ΔmdrMTAC mutant; assay type: cell-based, Listeria monocytogenes; conditions: for effect on growth in the absence of vancomycin stress: BHI, dinucleotide 3 μg ml^−1; for effect on growth in the presence of vancomycin: vancomycin 1 μg ml^−1, dinucleotide 3 μg ml^−1
Procedure: as §1

ΔmdrMTAC = experiment: Minimal inhibitory concentration for ΔmdrMTAC; assay type: cell-based; conditions: Listeria monocytogenes, read-out: minimal inhibitory concentration
WT bacteria [1] = experiment: Minimal inhibitory concentration for WT bacteria; assay type: cell-based; conditions: Listeria monocytogenes
Procedure: as §1

[2] = tested on: dacA gene transcription in WT bacteria; experiment: RT-qPCR of dacA transcription upon vancomycin treatment, WT bacteria; assay type: cell-based, Listeria monocytogenes
Procedure: as §1, with “[…];” for “1 μg ml^−1 vancomycin, 0.08 μg ml^−1 penicillin G for 2 h;”
RNA was purified from bacteria in mid-log growth in BHI or from infected cells using standard phenol-chloroform extraction methods. RNA from intracellularly grown bacteria was amplified using MESSAGEAMP™ II (AMBION™) bacterial RNA amplification kit according to the manufacturer's instructions. RNA of infected macrophages was extracted using TRIZOL® reagent according to standard protocols. […]

WT bacteria [3] = experiment: TEM sections, cell wall thickness under vancomycin treatment, WT bacteria; assay type: cell-based, Listeria monocytogenes; conditions: vancomycin 1 μg ml^−1 for 2 h
Procedure: as §1
Bacteria were grown as described above with and without vancomycin treatment. For negative staining, PBS washed bacteria were adsorbed on formvar/carbon coated grids and stained with 2% aqueous uranyl acetate. For TEM sections, a bacterial pellet from 20 ml of culture was fixed in 2.5% glutaraldehyde in PBS at 4° C. for 20 h, washed three times with PBS and post-fixed in 1% OsO4 in PBS at 4° C. for 2 h. […]

Nc1ncnc2c1ncn2[C@@H]1O[C@@H]2COP(=O)(O)O[C@H]3[C@@H](O)[C@H](n4cnc5c(N)ncnc54)O[C@@H]3COP(=O)(O)O[C@H]2[C@H]1O [c-di-AMP, cyclic-di-adenosine monophosphate]
effect on growth in the absence of vancomycin stress (WT L. monocytogenes): no effect | effect on growth in the presence of vancomycin (WT L. monocytogenes): shorter lag phase | effect on growth in the absence of vancomycin stress (ΔmdrMTAC mutant): no effect | effect on growth in the presence of vancomycin (ΔmdrMTAC mutant): shorter lag phase

CN[C@H](CC(C)C)C(=O)N[C@H]1C(=O)N[C@@H](CC(N)=O)C(=O)N[C@H]2C(=O)N[C@H]3C(=O)N[C@H](C(=O)N[C@H](C(=O)O)c4cc(O)cc(O)c4-c4cc3ccc4O)[C@H](O)c3ccc(c(Cl)c3)Oc3cc2cc(c3O[C@@H]2O[C@H](CO)[C@@H](O)[C@H](O)[C@H]2O[C@H]2C[C@](C)(N)[C@H](O)[C@H](C)O2)Oc2ccc(cc2Cl)[C@H]1O [vancomycin]
MIC (ΔmdrMTAC): 1.5 mg/L (≈ 1.04 µM) | MIC (WT bacteria [1]): 2 mg/L | dacA transcription level in comparison to non-treated bacteria ([2]; sub-lethal vancomycin 1 μg ml^−1): 1.5 fold | dacA transcription level in comparison to non-treated bacteria ([2]; vancomycin 20 μg ml^−1 for 10 minutes): 4.5 fold | cell wall thickness, average (WT bacteria [3]): 35 nm

CC1(C)S[C@@H]2[C@H](NC(=O)Cc3ccccc3)C(=O)N2[C@H]1C(=O)O [penicillin, penicillin G]
MIC (ΔmdrMTAC): 0.08 mg/L (≈ 0.239 µM) | MIC (WT bacteria [1]): 0.15 mg/L

Nc1nc2c(ncn2[C@@H]2O[C@@H]3COP(=O)(O)O[C@H]4[C@@H](O)[C@H](n5cnc6c(=O)[nH]c(N)nc65)O[C@@H]4COP(=O)(O)O[C@H]3[C@H]2O)c(=O)[nH]1 [c-di-GMP]
effect on growth in the absence of vancomycin stress (WT L. monocytogenes): no effect | effect on growth in the presence of vancomycin (WT L. monocytogenes): no effect | effect on growth in the absence of vancomycin stress (ΔmdrMTAC mutant): no effect | effect on growth in the presence of vancomycin (ΔmdrMTAC mutant): no effect
